Converted amounts (≈) assume the structure as drawn.
Tests used:
[1] = tested on: HIV-1IIIB virus strain; test: Anti-HIV activity test (MT-2 cell model), p24 antigen ELISA; assay type: cell-based; details: MT-2 cells; for EC50: Human immunodeficiency virus 1, MT2, HIV-1IIIB, 4th day, p24 antigen; for SI(CC50/EC50): ratio of toxicity CC50 value to activity EC50 value
Method: Please refer to the document (Jiang, S., et al. Antimicrob. Agents Chemother. 2004, 48, 4349-4359). In a 96-pore cell culture plate, 50 μl of different concentrations of compound solutions were respectively mixed with equal-volume of HIV-1IIIB virus strain (100 TCID50), and incubated at 37° C. for 30 min, and then 100 μl MT-2 cell (1×10^5/mL, RPIM 1640 culture medium containing 10% serum) was added, and mixed homogenously, followed by incubation at 37° C. overnight. On the second day, 150 μl of the supernatant was sucked out, and equal-volume of fresh culture medium was replenished, followed by further incubation at 37° C. for 3 days. On the 4th day, cytopathic effect (CPE) was recorded. Thereafter, 100 μl of culture supernatant was sucked out, virus particles were split using 5% Triton X-100, and p24 antigen therein was tested by using ELISA assay. Briefly, a ELISA plate was coated with HIVIG (2 μg/mL), and blocked with 1% fat-free milk, then a virus lysate was added therein, followed by incubation at 37° C. for 60 min. After fully washing the plate, anti-p24 monoclonal antibody-183-12H-5C, biotin-labeled goat antimouse antibody and […]-labeled horseradish peroxidase were added in sequence. Then, after developing with TMB, OD was tested at 450 nm. The 50% effective concentration (EC50) of the compound was calculated using CalcuSyn software.

[2] = Cytotoxicity test of the compound (MT-2 cells, XTT); assay type: cell-based; details: human, 4th day
Method: Please refer to the document (Jiang, S., et al. Antimicrob. Agents Chemother. 2004, 48, 4349-4359). In a 96-pore cell culture plate, 50 μl of different concentrations of compound solutions were respectively mixed with equal-volume of PBS, and incubated at 37° C. for 30 min, and then 100 μl MT-2 (or H9) cells (1×10^5/mL, RPIM 1640 culture medium containing 10% serum) was added, and mixed homogenously, followed by incubation at 37° C. overnight. On the second day, 150 μl of the supernatant was sucked out, and equal-volume of fresh culture medium was replenished, followed by further incubation at 37° C. for 3 days. On the 4th day, 50 μl of a XTT solution (1 mg/mL) containing PMS as freshly prepared was added. After 4 h, OD at 450 nm was tested. The 50% cytotoxicity concentration (CC50) of the compound was calculated using CalcuSyn software.

## Cc1cc([N+](=O)[O-])cc(C)c1Oc1ccc([N+](=O)[O-])c(Nc2ccc(C#N)cc2)n1
other
  melting point: 250 to 252 °C

## Cc1cc(C)c(Oc2ccc([N+](=O)[O-])c(Nc3ccc(C#N)cc3)n2)c(C)c1 [Compound I-3, 2-(4-cyanophenylamino)-6-(2,4,6-trimethylphenoxy)-3-nitropyridine]
[1]
  EC50: 0.118 µg/mL (≈ 0.315 µM)
  SI(CC50/EC50): 4,264
[2]
  CC50 at 4 days: 503 µg/mL (≈ 1340 µM)

## Cc1cc(C=CC#N)cc(C)c1Oc1ccc([N+](=O)[O-])c(Nc2ccc(C#N)cc2)n1 [Compound I-5, 2-(4-cyanophenylamino)-6-(2,6-dimethyl-4-cyanovinylphenoxy)-3-nitropyridine]
[1]
  EC50: 0.005 µg/mL (≈ 0.0122 µM)
  SI(CC50/EC50): 4,956
[2]
  CC50 at 4 days: 24.8 µg/mL (≈ 60.2 µM)

## Cc1cc(C#N)cc(C)c1Oc1ccc(N)c(Nc2ccc(C#N)cc2)n1 [Compound I-6, 3-amino-2-(4-cyanophenylamino)-6-(2,6-dimethyl-4-cyanophenoxy)pyridine]
[1]
  EC50: 0.0005 µg/mL (≈ 0.00141 µM)
  SI(CC50/EC50): 22,560
[2]
  CC50 at 4 days: 11.3 µg/mL (≈ 31.7 µM)

## Cc1cc(CO)cc(C)c1Oc1ccc([N+](=O)[O-])c(Nc2ccc(C#N)cc2)n1 [Compound I-8, 2-(4-cyanophenylamino)-6-(2,6-dimethyl-4-hydroxymethylphenoxy)-3-nitropyridine]
[1]
  EC50: 0.075 µg/mL (≈ 0.192 µM)
  SI(CC50/EC50): 602
[2]
  CC50 at 4 days: 45.2 µg/mL (≈ 116 µM)

## C=CCc1cc(C)c(Oc2ccc([N+](=O)[O-])c(Nc3ccc(C#N)cc3)n2)c(C)c1 [Compound I-9, 2-(4-cyanophenylamino)-6-(2,6-dimethyl-4-allylphenoxy)-3-nitropyridine]
[1]
  EC50: 0.109 µg/mL (≈ 0.272 µM)
  SI(CC50/EC50): >917
[2]
  CC50 at 4 days: > 100 µg/mL

## Cc1cc(C=CC#N)cc(C)c1Oc1ccc(N)c(Nc2ccc(C#N)cc2)n1 [Compound I-10, 3-amino-2-(4-cyanophenylamino)-6-(2,6-dimethyl-4-cyanovinylphenoxy)pyridine]
[1]
  EC50: 0.0042 µg/mL (≈ 0.011 µM)
  SI(CC50/EC50): 6,656
[2]
  CC50 at 4 days: 27.9 µg/mL (≈ 73.3 µM)

## Cc1cc(Br)cc(C)c1Oc1ccc(N)c(Nc2ccc(C#N)cc2)n1 [Compound I-12, 3-amino-2-(4-cyanophenylamino)-6-(2,6-dimethyl-4-bromophenoxy)pyridine]
[1]
  EC50: 0.021 µg/mL (≈ 0.0513 µM)
  SI(CC50/EC50): 259
[2]
  CC50 at 4 days: 5.44 µg/mL (≈ 13.3 µM)
other
  melting point: 190 to 193 °C

## C=CCc1cc(C)c(Oc2ccc(N)c(Nc3ccc(C#N)cc3)n2)c(C)c1 [Compound I-13, 3-amino-2-(4-cyanophenylamino)-6-(2,6-dimethyl-4-allylphenoxy)pyridine]
[1]
  EC50: 0.09 µg/mL (≈ 0.243 µM)
  SI(CC50/EC50): 24
[2]
  CC50 at 4 days: 2.13 µg/mL (≈ 5.75 µM)
other
  melting point: 150 to 152 °C

## Cc1cc(C(O)C[N+](=O)[O-])cc(C)c1Oc1ccc([N+](=O)[O-])c(Nc2ccc(C#N)cc2)n1 (stereo not shown) [Compound I-14, 2-(4-cyanophenylamino)-6-(2,6-dimethyl-4-(1-hydroxy-2-nitroethyl)phenoxy)-3-nitropyridine]
[1]
  EC50: 0.77 µg/mL (≈ 1.71 µM)
  SI(CC50/EC50): 16
[2]
  CC50 at 4 days: 12.2 µg/mL (≈ 27 µM)
other
  melting point: 230 to 234 °C

## Cc1cc(CNC2CC2)cc(C)c1Oc1ccc([N+](=O)[O-])c(Nc2ccc(C#N)cc2)n1 [Compound I-15, 2-(4-cyanophenylamino)-6-(2,6-dimethyl-4-(2-cyclopropylaminomethyl)phenoxy)-3-nitropyridine]
other
  melting point: 175 to 177 °C

## Cc1cc(I)cc(C)c1Oc1ccc([N+](=O)[O-])c(Nc2ccc(C#N)cc2)n1 [Compound I-16, 2-(4-cyanophenylamino)-6-(2,6-dimethyl-4-iodophenoxy)-3-nitropyridine]
[1]
  EC50: 1.18 µg/mL (≈ 2.43 µM)
  SI(CC50/EC50): 61
[2]
  CC50 at 4 days: 72.2 µg/mL (≈ 148 µM)
other
  melting point: 162 to 165 °C

## Cc1cc(C#CC(C)(C)O)cc(C)c1Oc1ccc([N+](=O)[O-])c(Nc2ccc(C#N)cc2)n1 [Compound I-18, 2-(4-cyanophenylamino)-6-(2,6-dimethyl-4-(3-methyl-3-hydroxy-1-butynyl)phenoxy)-3-nitropyridine]
other
  melting point: 114 to 116 °C

## Cc1cc(C#CC2CC2)cc(C)c1Oc1ccc([N+](=O)[O-])c(Nc2ccc(C#N)cc2)n1 [Compound I-20, 2-(4-cyanophenylamino)-6-(2,6-dimethyl-4-(cyclopropylethynyl)phenoxy)-3-nitropyridine]
other
  melting point: 188 to 192 °C

## Cc1cc(C#CC2CC2)cc(C)c1Oc1ccc(N)c(Nc2ccc(C#N)cc2)n1 [Compound I-21, 3-amino-2-(4-cyanophenylamino)-6-(2,6-dimethyl-4-(cyclopropylethynyl)phenoxy)pyridine]
other
  melting point: 82 to 85 °C

## C#Cc1cc(C)c(Oc2ccc([N+](=O)[O-])c(Nc3ccc(C#N)cc3)n2)c(C)c1 [Compound I-22, 2-(4-cyanophenylamino)-6-(2,6-dimethyl-4-ethynylphenoxy)-3-nitropyridine]
[1]
  EC50: 0.26 µg/mL (≈ 0.676 µM)
  SI(CC50/EC50): 256
[2]
  CC50 at 4 days: 66.7 µg/mL (≈ 173 µM)
other
  melting point: 186 to 188 °C

## C#Cc1cc(C)c(Oc2ccc(N)c(Nc3ccc(C#N)cc3)n2)c(C)c1 [Compound I-23, 3-amino-2-(4-cyanophenylamino)-6-(2,6-dimethyl-4-ethynylphenoxy)pyridine]
[1]
  EC50: 0.15 µg/mL (≈ 0.423 µM)
  SI(CC50/EC50): 19
[2]
  CC50 at 4 days: 2.92 µg/mL (≈ 8.24 µM)
other
  melting point: 79 to 82 °C

## Cc1cc(N)cc(C)c1Oc1ccc(N)c(Nc2ccc(C#N)cc2)n1 [Compound I-24, 3-amino-2-(4-cyanophenylamino)-6-(2,6-dimethyl-4-aminophenoxy)pyridine]
other
  melting point: 195 to 198 °C

## Cc1cc(I)cc(C)c1Oc1ccc(N)c(Nc2ccc(C#N)cc2)n1 [Compound I-25, 3-amino-2-(4-cyanophenylamino)-6-(2,6-dimethyl-4-iodophenoxy)pyridine]
[1]
  EC50: 0.036 µg/mL (≈ 0.0789 µM)
  SI(CC50/EC50): 298
[2]
  CC50 at 4 days: 10.7 µg/mL (≈ 23.5 µM)

## N#Cc1ccc(Nc2nc(Oc3c(Br)cc(Br)cc3Br)ccc2[N+](=O)[O-])cc1 [Compound I-26, 2-(4-cyanophenylamino)-6-(2,4,6-tribromophenoxy)-3-nitropyridine]
[1]
  EC50: 0.179 µg/mL (≈ 0.315 µM)
  SI(CC50/EC50): 151
[2]
  CC50 at 4 days: 27 µg/mL (≈ 47.4 µM)
other
  melting point: 188 to 191 °C

## N#Cc1ccc(Nc2nc(Oc3c(Br)cc(C=O)cc3Br)ccc2[N+](=O)[O-])cc1 [Compound I-27, 2-(4-cyanophenylamino)-6-(2,6-dibromo-4-formylphenoxy)-3-nitropyridine]
[1]
  EC50: 0.152 µg/mL (≈ 0.293 µM)
[2]
  CC50 at 4 days: 0.78 µg/mL (≈ 1.51 µM)
other
  melting point: 218 to 220 °C

## N#Cc1ccc(Nc2nc(Oc3c(Br)cc(CO)cc3Br)ccc2[N+](=O)[O-])cc1 [Compound I-28, 2-(4-cyanophenylamino)-6-(2,6-dibromo-4-hydroxymethylphenoxy)-3-nitropyridine]
[1]
  EC50: 0.253 µg/mL (≈ 0.486 µM)
  SI(CC50/EC50): 145
[2]
  CC50 at 4 days: 36.3 µg/mL (≈ 69.8 µM)
other
  melting point: 209 to 213 °C

## N#Cc1ccc(Nc2nc(Oc3c(F)cccc3F)ccc2[N+](=O)[O-])cc1 [Compound I-29, 2-(4-cyanophenylamino)-6-(2,6-difluorophenoxy)-3-nitropyridine]
[1]
  EC50: 15.9 µg/mL (≈ 43.2 µM)
  SI(CC50/EC50): 2
[2]
  CC50 at 4 days: 39.7 µg/mL (≈ 108 µM)
other
  melting point: 234 to 236 °C

## N#CC=Cc1cc(Br)c(Oc2ccc([N+](=O)[O-])c(Nc3ccc(C#N)cc3)n2)c(Br)c1 [Compound I-30, 2-(4-cyanophenylamino)-6-(2,6-dibromo-4-cyanovinylphenoxy)-3-nitropyridine]
[1]
  EC50: 0.045 µg/mL (≈ 0.0832 µM)
  SI(CC50/EC50): 551
[2]
  CC50 at 4 days: 24.8 µg/mL (≈ 45.8 µM)
other
  melting point: 223 to 226 °C

Reference: patent US8933106B2, “2-(4-substituted phenylamino) polysubstituted pyridine compounds as inhibitors of non-nucleoside HIV reverse transcriptase, preparation methods and uses thereof” (Institute of Pharmacology and Toxicology Academy of …, priority 2008, dated 2015)
